Assay results as given in patent publication US20060089260A1, “Nitrification inhibitor treatment of grazed pasture soils” (priority 2002, published 2006).
Several values for one entry are separate records, joined by “and”; a condition that tells them apart may be missing. Identical values can stand only once.

Columns and labels:
[1] = test system: nitrification in soil (oxidation of NH4+ to NO2−); assay: Potassium, calcium and magnesium leaching losses, paddock-averaged; details: calculated paddock average
Description: (§1) Lysimeter studies, which are state-of-the-art technology for these investigations, have shown the effectiveness of a nitrification inhibitor, dicyandiamide (DCD), in reducing NO3^−—N leaching from a grazed dairy pasture under irrigation. This example used a free-draining Lismore stony silt loam (Udic Haplustept loamy skeletal) and the pasture was a mixture of perennial ryegrass (Lolium perenne) and white clover (Tifolium repens) but the process is applicable to all temperate soils and animal grazing systems.
(§2) Undisturbed soil monolith lysimeters, 50 cm diameter and 70 cm deep, were collected following well-established protocols and procedures that ensure there is minimal disturbance to the soil structure inside. The lysimeters were transported to a lysimeter facility near Lincoln University, using a specially designed trailer with air-bag suspension to minimize disturbance. The gap between the soil core and the metal casing was sealed using petroleum jelly to stop edge-flow effects. The lysimeters were then installed in the field lysimeter facility with the surface of the lysimeters at the same level as that of the surrounding soil surface, in order to maintain normal plant growing conditions.
(§3) Each treatment had 4 replicates. The treatments were allocated to the lysimeters in a randomised design. The urea application rate of 200 kg N ha^−1 y^−1 was at the higher end of fertilizer N application rates for most farmers in the region. The rates of urea were either split into 8 applications to maximize N efficiency, or 4 applications as a cost cutting measure (i.e. reducing application costs). Urine was applied either in the spring (November) or in the autumn (April) to simulate urine patches deposited in the spring or autumn by a grazing dairy cow. The urine application rate of 1000 kg N ha^−1 was equivalent to the typical N loading rate under a cow urine patch. The combination of urea with urine treatments was included to represent a situation where urea was applied throughout the paddock, and patches of the paddock received cow urine. Two rates of phosphate (P) fertilizer were applied, 45 or 90 kg P ha^−1 y^−1, to represent the range of P application rates used by local dairy farmers. As the purpose of this study was to determine the effectiveness of DCD in reducing NO3^− leaching from grazed pasture soil including cow urine patch areas, DCD was either applied or withheld. The DCD was applied in a liquid form to simulate application in the irrigation water on irrigated dairy farms or by spray vehicle.
(§4) DCD was applied in solution form (100 mL per lysimeter) at the rates of 7.5 kg ha^−1 after each urea application in the same day, or 15 kg ha^−1 immediately after each urine application. The DCD solution was sprayed onto the lysimeters with a watering can, simulating an application by an irrigator or spray vehicle.
(§5) From November to April (late spring to mid autumn), flood irrigation, at 100 mm, was applied to all the lysimeters at about three weekly intervals. The amount of water applied was to represent the average amount of water applied on commercial flood-irrigated dairy farms. Irrigation water was applied using an electronically controlled metering system to deliver the required volume of water to the lysimeters. From May to October (late autumn to mid spring), simulated rainfall was applied at the end of each month (if necessary), to supplement the natural rainfall received in order to equal the 75th percentile of local rainfall records for the same period of the year. This was done to create a so-called ‘worst case scenario’ in terms of rainfall inputs and to ensure a standard condition was achieved.

nitrification in soil [2] = details: cited from earlier work
grazed dairy pasture = assay: Field plot experiment on Temuka soil, pasture response to DCD; details: for Pasture yield: with DCD applied
Procedure: A field plot experiment was established on a Temuka soil on the Lincoln University Dairy farm to determine pasture response to DCD applications. A total of six plots, each 100 m^2 in area were set up. Fresh cow urine was collected from dairy cows and was analysed for N concentration. The urine was then applied to eight areas (0.2 m^2 each) within each plot to simulate urine patches deposited by the grazing cow. Urea was applied to the plots as per the rest of the farm at 200 kg N/ha. Phosphate fertilizer (superphosphate) was applied at 45 kg P/ha per year as per the rest of the dairy farm.
Three of the plots received the DCD treatment DCD was applied in a solution form to the whole area of each plot by spray equipment similar to those used to spray other agrochemicals. The DCD was applied twice each year (one in the autumn (May) and one in the spring (August)) at 10-15 kg/ha for each application.
Spray irrigation was applied between spring and autumn when necessary through a central pivot irrigator as per the rest of the dairy farm. Pasture from the simulated urine patch areas and from adjacent non-urine patch areas was cut and removed. Following the pasture cut, the plots were then grazed by dairy cows.
Dry matter yield was recorded from the urine patch and non-urine patch areas (Table 2). Pasture yield was calculated at the paddock scale as described above (Table 2).

[3] = test system: nitrification in soil (oxidation of NH4+ to NO2−); assay: Lysimeter study of NO3−-N leaching from grazed dairy pasture soil (Lismore stony silt loam); details: for Total annual NO3−-N leaching loss: lysimeter
Description: as §1, §2, §3
Urea was applied in solid form and was broadcast over the surface of the lysimeters followed by 10 mm of irrigation.
Fresh urine was collected early in the morning during the milking session from Friesian cows, and was analysed and applied to the lysimeters on the same day.
as §4, §5

[4] = test system: pasture, mixture of perennial ryegrass (Lolium perenne) and white clover (Tifolium repens); assay: Lysimeter study of pasture yield and pasture N off-take; details: for Increase in pasture yields: lysimeters
Description: as §1, §3, §4
The herbage was cut periodically to simulate typical grazing practice. All the harvested herbage was removed and dry matter yield recorded. Herbage nitrogen content was analysed. Following each herbage cut, a specially designed mechanical cow hoof was used to simulate cow treading on the lysimeters. The mechanical hoof is made of stainless steel with identical shape and size as an adult Friesian cow hoof. The hoof is mounted onto a compressed air-ram, which is driven by an air compressor system to provide a treading pressure of 220 kPa to simulate the treading pressure exerted by a cow's hoof during walking. The entire surface of the lysimeters was trodden once following each herbage cut. This was based on the inventors observation of hoof print coverage following each grazing rotation.

nitrification in soil [5] = details: cited from earlier work; remark: listed apart in the source
[6] = test system: nitrification in soil (oxidation of NH4+ to NO2−); assay: Nitrous oxide emissions from urine-treated lysimeters, closed chamber method; details: for Total nitrous oxide emission: urine + DCD, standard error of the mean in brackets; for Nitrous oxide (N2O) emissions: with DCD
Procedure: Nitrous oxide emissions from two treatments were determined using a closed chamber method. The enclosed chamber was fitted on top of the lysimeters inside a rubber ring on top of the lysimeter casing. At each sampling time, 3 samples, 10-15 minutes apart, were taken. Nitrous oxide was analysed using gas chromatography and daily N2O fluxes were calculated based on daily mean temperatures.

**Q.** Which “% decrease due to DCD, calcium (Ca2+) leaching” value [1] does the source give for `N#CN=C(N)N` [DCD, dicyandiamide] here?
**A.** Its value is 50%.

**Q.** And the “% decrease due to DCD, magnesium (Mg2+) leaching” value [1]?
**A.** The value was 52%.

**Q.** And the “% decrease due to DCD, potassium (K+) leaching” value [1]?
**A.** The value was 65%.

**Q.** And the “Leaching losses of magnesium (Mg2+), with DCD” value ([1]; 25% of area urine patches, 17 without DCD)?
**A.** Its value is 8 kg ha−1y−1.

**Q.** What about the “Leaching losses of potassium (K+), with DCD” value ([1]; 25% of area urine patches, 48 without DCD) of the same molecule?
**A.** Its value is 17 kg ha−1y−1.

**Q.** And the “Leaching losses of calcium (Ca2+), with DCD” value ([1]; 25% of area urine patches, 213 without DCD)?
**A.** Its value is 107 kg ha−1y−1.

**Q.** And the “Response in pasture yield or N uptake to DCD application” value (nitrification in soil [2]; dairy cattle urine patches, field)?
**A.** Its value is “no significant response”.

**Q.** And the “Effect on nitrification rate in the soil” value (nitrification in soil [2]; measured in the field)?
**A.** The value was “slowed down the nitrification rate in the soil”.

**Q.** What about the “Paddock averaged pasture yield” value (grazed dairy pasture; field plots, Temuka soil, calculated paddock average, with DCD, 11.1 without DCD) of the same molecule?
**A.** Its value is 13.0 t ha−1 y−1.

**Q.** And the Pasture yield (grazed dairy pasture; field plots, Temuka soil, non-urine patch areas, 10.3 without DCD)?
**A.** The Pasture yield was 12.3 t ha−1 y−1.

**Q.** What about the Pasture yield (grazed dairy pasture; field plots, Temuka soil, urine patch areas, 13.4 without DCD) of the same molecule?
**A.** Its Pasture yield is 15.1 t ha−1 y−1.

**Q.** What about the “Increase of pasture production from the whole of the grazed pasture” value (grazed dairy pasture; paddock average, Table 2) of the same molecule?
**A.** The value was “more than 15%”.

**Q.** What about the “Reduction of NO3−-N leaching, annual average” value ([3]; average of autumn and spring urine) of the same molecule?
**A.** Its value is 59%.

**Q.** And the “Paddock averaged NO3−-N concentration in the drainage water” value ([3]; calculated paddock average, urea 200 + grazing, urine patches 25% of paddock, DCD applied)?
**A.** The value was 7.7 mg N L−1.

**Q.** What about the “Leaching losses from paddock (annual NO3−-N)” value ([3]; calculated paddock average, urea 200 kg N ha−1 y−1 + grazing, urine patches 25% of paddock (3 cows per ha), DCD applied) of the same molecule?
**A.** Its value is 46 kg N ha−1 y−1 and 46.1 kg N ha−1 y−1.

**Q.** And the “Total annual NO3−-N leaching loss” value ([3]; autumn urine, P 90 treatment, with DCD (Treatment 6), 488 without DCD)?
**A.** Its value is 112 kg N ha−1 y−1.

**Q.** And the “Total annual NO3−-N leaching loss” value ([3]; urine 1000 kg N ha−1 applied in autumn, with DCD (Treatment 4), 516 without DCD)?
**A.** The value was 128 kg N ha−1 y−1.

**Q.** And the “Total annual NO3−-N leaching loss” value ([3]; urine applied in spring, with DCD (Treatment 8), 397 without DCD)?
**A.** The value was 230 kg N ha−1 y−1.

**Q.** What about the “Reductions in the amount of urine N leached” value ([3]; span spring to autumn urine application) of the same molecule?
**A.** The value was 42.1-76.1%.

**Q.** And the “Reduction of NO3−-N leaching” value ([3]; urine-N applied in the autumn, average)?
**A.** Its value is 76% and 76.1%.

**Q.** And the “Reduction of NO3−-N leaching” value ([3]; urine-N applied in the spring)?
**A.** The value was 42% and 42.1%.

**Q.** What about the “Increase in pasture N off-take” value ([4]; autumn urine treatments) of the same molecule?
**A.** The value was 23%.

**Q.** What about the “Increase in pasture N off-take, annual average” value ([4]; average of autumn and spring) of the same molecule?
**A.** The value was 16%.

**Q.** And the “Increase in pasture yields” value ([4]; autumn urine treatments, average)?
**A.** Its value is 49%.

**Q.** And the “Increase in pasture yields” value ([4]; spring urine treatments)?
**A.** Its value is 17.5%.

**Q.** And the “Increase in pasture N off-take” value ([4]; spring urine treatments)?
**A.** Its value is 9%.

**Q.** What about the “Annual average increase in pasture production” value ([4]; treating the whole surface area with DCD) of the same molecule?
**A.** The value was “more than 15%”.

**Q.** And the Pasture production ([4]; with DCD, 11.4 without DCD)?
**A.** The Pasture production was 15.0 t ha−1 y−1.

**Q.** What about the “Reduction in N leached achieved by applying DCD” value (nitrification in soil [5]; DCD added to dairy farm effluent, repeated, high effluent-N loadings during winter) of the same molecule?
**A.** Its value is “not sufficient to avert high N losses and environmental damage”.

**Q.** And the “Reduction in the amount of NO3−-N leached” value (nitrification in soil [5]; DCD combined with farm dairy effluent (dirty water))?
**A.** Its value is 18%.

**Q.** What about the “Total nitrous oxide emission” value ([6]; autumn application, 26.7 (5.9) without DCD) of the same molecule?
**A.** Its value is 7.0 (2.3) kg N2O/ha.

**Q.** And the “Total nitrous oxide emission” value ([6]; spring application, 18.0 (2.9) without DCD)?
**A.** The value was 4.5 (0.7) kg N2O/ha.

**Q.** What about the “Nitrous oxide (N2O) emissions” value ([6]; spring urine application, 18.0 without DCD) of the same molecule?
**A.** The value was 4.5 kg N2O—N ha−1.

**Q.** What about the “Nitrous oxide (N2O) emissions” value ([6]; urine application in autumn, 26.7 without DCD) of the same molecule?
**A.** The value was 7.0 kg N2O—N.
